# From US20260284087A1, “USES OF CANNABIDIOL (CBD) AND ADVANCED METABOLIC SYNDROME” (THE REGENTS OF THE UNIVERSITY OF CALIFORNIA, priority 2022, published 2026)
# What was measured:
# [1] = tested on: Otsuka Long-Evans Tokushima Fatty (OLETF) rats; test: CBD effect on brown adipose tissue loss in OLETF rats with progressive MetS; assay type: in vivo, rat; settings: 15-week-old OLETF rats, 200 mg CBD/kg oral gavage for 5 weeks; p<0.05; BAT estimated from 2-dimensional images (surface area)
# Procedure: (§1) To assess the effects of a CBD on BAT loss associated with progressive MetS, a cohort of 15-week-old Otsuka Long-Evans Tokushima Fatty (OLETF) rats were administered 200 mg CBD/kg by oral gavage for 5 weeks. Animals were fed ad libitum and monitored in metabolic cages alongside vehicle-treated OLETF and lean strain control Long-Evans Tokushima Otsuka (LETO) rats. Brown adipose tissue content was estimated from 2-dimensional images to quantify surface area. The Otsuka Long-Evans Tokushima Fatty (OLETF) rat is a monogenic model of diet-induced obesity accelerated by a mutation in the CCK receptor. […] At >40 weeks of age, OLETF rats suffer from severe metabolic dysfunction and therefore serve as a model of aged, severe MetS.
# [2] = tested on: Otsuka Long-Evans Tokushima Fatty (OLETF) rats; test: Plasma metabolomics in CBD-treated OLETF rats; assay type: in vivo, rat; settings: OLETF vs. CBD, 200 mg CBD/kg oral gavage for 5 weeks, p<0.0001
# Source text: FIGS. 2A-2C CBD increases BAIBA. A) Metabolomic map showing metabolites with p<0.05 after Student's t-test, representing mean plasma peak intensity fold-changes between groups in metabolites with q<0.2, for OLETF vs. CBD, B) top 5 metabolites, associated pathway and change directionality listed by lowest p-value for OLETF vs. CBD and C) raw mean peak area of BAIBA. *p<0.05 compared to LETO and †p<0.05 compared to OLETF by ANOVA with Tukey's HSD or student's t-test.
# as §1
structure (smiles),measurement,setting,value
"C=C(C)[C@@H]1CCC(C)=C[C@H]1c1c(O)cc(CCCCC)cc1O [CBD, Cannabidiol]",BAT masses preserved (of BAT lost in OLETF control),[1],55%
same,increase in ß-aminoisobutyric acid (BAIBA),[2],2.1 fold
